Among the data in patent publication US10710993B2, “Benzofuran pyrazole amine kinase inhibitor” (Hangzhou REX Pharmaceutical Co., LTD., priority 2016, dated 2020) are IC50 and GI50 values, retold here.

Test [1] deals with T1, Wild-Type ALK (Homo sapiens, UniProt Q9UM73).
T1 construct: purchased Life Technology
The experiment in a line: Z'-LYTE (FRET) ALK kinase inhibitory activity. The test is classed as biochemical. On the procedure:
(§1) The kinase activity assay was determined by using kinase assay panel (Life Technology) and the result was in table 1.

The target in test [2] is T2, ALK L1196M (Homo sapiens, UniProt Q9UM73, L1196M).
T2 construct: purchased Life Technology
The experiment in a line: LanthaScreen Eu Kinase Binding Assay (TR-FRET) on ALK mutant.
Text: Meanwhile, The LanthaScreen® Eu Kinase Binging Assay (TR-FRET) method was used for determining ALK Mutants (such as ALK L1196M) inhibitory activity IC50. LanthaScreen Eu kinase binding experiment detected Alexa Fluor conjugate or kinase “tracer” binding by adding Eu labeled antibodies or anti-label antibodies. The combination of tracer and antibody with kinase leads to a high level of FRET, whereas the use of kinase inhibitors in place of tracer may cause FRET loss.
as §1

Test [3] concerns the target T3, TEL-ALK-F1174L-BaF3 (Homo sapiens, UniProt Q9UM73, F1174L, cells depend on it).
T3 construct: fused on or other part: TEL (ETV6) N-terminal oligomerising part fused before the ALK intracellular/kinase part; P41212 (Transcription factor ETV6)
The experiment in a line: Cell proliferation experiment (Cell-Titer GLO), TEL-ALK-F1174L-BaF3. The test is classed as cell-based. The settings on record: 72 h, read-out: IC50 TEL-ALK F1174L-BaF3. As for the experimental part:
(§2) Compounds to be tested: Positive compound Ceritinib and the compounds obtained by the examples of the present invention.
(§3) Cell lines: Karpas-299 and NCI-H3122 which were purchased from the Nanjing kebai biotechnology Co. LTD; TEL-ALK-F1174L-BaF3, TEL-ALK-G1202R-BaF3, TEL-ALK-C1156Y-BaF3 and TEL-ALK-L1196M-BaF3 which were purchased from Hefei zhongkopruisheng biological medicine technology Co. LTD.
(§4) Method: Cells were seeded in 96-well plates for 24 h in growth media containing 10% fetalbovine serum (FBS) and cultured overnight at 37° C. The following day, serial dilutions of compounds or appropriate control were added to the designated wells, and cells were incubated at 37° C. for 72 h. A Cell Titer Glo assay (Promega) was then performed to determine the relative cell numbers. IC50 values were calculated by concentration-response curve fitting using a four-parameter analytical method with Graphpad 6.0. Drug inhibition rate (%)=100%−[OD(Compound)−OD(blank)]/[OD(vehicle)−OD(blank)]×100% Equation: […]

Test [4] concerns the target T4, TEL-ALK-G1202R-BaF3 (Homo sapiens, UniProt Q9UM73, G1202R, cells depend on it).
T4 construct: fused on or other part: TEL (ETV6) N-terminal oligomerising part fused before the ALK intracellular/kinase part; P41212 (Transcription factor ETV6)
The experiment in a line: Cell proliferation experiment (Cell-Titer GLO), TEL-ALK-G1202R-BaF3. The test is classed as cell-based. The note with it: 72 h, read-out: IC50 TEL-ALK G1202R-BaF3. On the procedure: as §2, §3, §4

Test [5] deals with NCI-H3122. The experiment in a line: Cell proliferation experiment (Cell-Titer GLO), NCI-H3122. The test is classed as cell-based. The note with it: Homo sapiens, 72 h. As for the experimental part: as §2, §3, §4

The structures appear in SMILES notation.

T1 sequence (Q9UM73 19-1620): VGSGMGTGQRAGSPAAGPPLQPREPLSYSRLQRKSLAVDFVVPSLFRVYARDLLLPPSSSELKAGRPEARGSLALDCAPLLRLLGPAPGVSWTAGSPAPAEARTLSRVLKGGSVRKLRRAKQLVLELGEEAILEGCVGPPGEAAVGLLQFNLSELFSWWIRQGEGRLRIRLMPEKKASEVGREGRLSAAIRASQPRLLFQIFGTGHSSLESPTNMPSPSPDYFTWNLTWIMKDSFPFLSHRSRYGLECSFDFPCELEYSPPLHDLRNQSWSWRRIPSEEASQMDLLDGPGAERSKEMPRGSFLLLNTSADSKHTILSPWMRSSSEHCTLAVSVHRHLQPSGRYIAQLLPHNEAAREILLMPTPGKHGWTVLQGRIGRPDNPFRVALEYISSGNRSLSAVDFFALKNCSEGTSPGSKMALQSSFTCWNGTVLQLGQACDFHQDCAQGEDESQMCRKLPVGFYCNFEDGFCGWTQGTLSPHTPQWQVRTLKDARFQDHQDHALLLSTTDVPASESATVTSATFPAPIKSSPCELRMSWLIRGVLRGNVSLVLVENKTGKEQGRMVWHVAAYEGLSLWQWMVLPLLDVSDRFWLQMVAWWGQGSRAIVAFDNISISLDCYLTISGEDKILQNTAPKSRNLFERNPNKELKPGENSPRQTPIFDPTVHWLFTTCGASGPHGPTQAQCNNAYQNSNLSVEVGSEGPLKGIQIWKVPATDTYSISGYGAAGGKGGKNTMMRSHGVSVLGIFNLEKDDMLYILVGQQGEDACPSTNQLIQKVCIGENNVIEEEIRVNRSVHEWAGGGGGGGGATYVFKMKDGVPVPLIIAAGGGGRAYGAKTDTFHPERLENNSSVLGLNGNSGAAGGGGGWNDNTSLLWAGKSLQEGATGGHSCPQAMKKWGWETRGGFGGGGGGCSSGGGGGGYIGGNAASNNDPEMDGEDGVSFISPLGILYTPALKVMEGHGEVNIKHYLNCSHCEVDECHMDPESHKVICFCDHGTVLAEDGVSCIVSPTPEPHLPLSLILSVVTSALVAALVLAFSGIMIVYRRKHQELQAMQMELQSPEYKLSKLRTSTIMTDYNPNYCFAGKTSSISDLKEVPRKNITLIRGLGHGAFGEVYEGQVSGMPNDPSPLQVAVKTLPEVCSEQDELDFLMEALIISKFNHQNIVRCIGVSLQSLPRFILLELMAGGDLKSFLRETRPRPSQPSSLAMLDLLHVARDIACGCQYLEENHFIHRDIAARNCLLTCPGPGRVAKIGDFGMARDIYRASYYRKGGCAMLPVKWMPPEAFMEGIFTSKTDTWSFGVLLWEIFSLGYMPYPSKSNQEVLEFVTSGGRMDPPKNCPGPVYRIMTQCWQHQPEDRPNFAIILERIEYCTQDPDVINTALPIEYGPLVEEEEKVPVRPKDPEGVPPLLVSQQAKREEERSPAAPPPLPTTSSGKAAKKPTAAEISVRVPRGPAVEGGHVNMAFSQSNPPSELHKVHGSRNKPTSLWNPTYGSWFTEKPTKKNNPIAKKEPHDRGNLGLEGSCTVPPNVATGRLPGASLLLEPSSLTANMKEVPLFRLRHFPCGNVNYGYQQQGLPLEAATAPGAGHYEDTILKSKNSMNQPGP
T2 sequence (Q9UM73 19-1620 L1196M): as the sequence (Q9UM73 19-1620) above, with L1178M counted along it
T4 sequence (Q9UM73 whole entry G1202R, the tested form may be a part): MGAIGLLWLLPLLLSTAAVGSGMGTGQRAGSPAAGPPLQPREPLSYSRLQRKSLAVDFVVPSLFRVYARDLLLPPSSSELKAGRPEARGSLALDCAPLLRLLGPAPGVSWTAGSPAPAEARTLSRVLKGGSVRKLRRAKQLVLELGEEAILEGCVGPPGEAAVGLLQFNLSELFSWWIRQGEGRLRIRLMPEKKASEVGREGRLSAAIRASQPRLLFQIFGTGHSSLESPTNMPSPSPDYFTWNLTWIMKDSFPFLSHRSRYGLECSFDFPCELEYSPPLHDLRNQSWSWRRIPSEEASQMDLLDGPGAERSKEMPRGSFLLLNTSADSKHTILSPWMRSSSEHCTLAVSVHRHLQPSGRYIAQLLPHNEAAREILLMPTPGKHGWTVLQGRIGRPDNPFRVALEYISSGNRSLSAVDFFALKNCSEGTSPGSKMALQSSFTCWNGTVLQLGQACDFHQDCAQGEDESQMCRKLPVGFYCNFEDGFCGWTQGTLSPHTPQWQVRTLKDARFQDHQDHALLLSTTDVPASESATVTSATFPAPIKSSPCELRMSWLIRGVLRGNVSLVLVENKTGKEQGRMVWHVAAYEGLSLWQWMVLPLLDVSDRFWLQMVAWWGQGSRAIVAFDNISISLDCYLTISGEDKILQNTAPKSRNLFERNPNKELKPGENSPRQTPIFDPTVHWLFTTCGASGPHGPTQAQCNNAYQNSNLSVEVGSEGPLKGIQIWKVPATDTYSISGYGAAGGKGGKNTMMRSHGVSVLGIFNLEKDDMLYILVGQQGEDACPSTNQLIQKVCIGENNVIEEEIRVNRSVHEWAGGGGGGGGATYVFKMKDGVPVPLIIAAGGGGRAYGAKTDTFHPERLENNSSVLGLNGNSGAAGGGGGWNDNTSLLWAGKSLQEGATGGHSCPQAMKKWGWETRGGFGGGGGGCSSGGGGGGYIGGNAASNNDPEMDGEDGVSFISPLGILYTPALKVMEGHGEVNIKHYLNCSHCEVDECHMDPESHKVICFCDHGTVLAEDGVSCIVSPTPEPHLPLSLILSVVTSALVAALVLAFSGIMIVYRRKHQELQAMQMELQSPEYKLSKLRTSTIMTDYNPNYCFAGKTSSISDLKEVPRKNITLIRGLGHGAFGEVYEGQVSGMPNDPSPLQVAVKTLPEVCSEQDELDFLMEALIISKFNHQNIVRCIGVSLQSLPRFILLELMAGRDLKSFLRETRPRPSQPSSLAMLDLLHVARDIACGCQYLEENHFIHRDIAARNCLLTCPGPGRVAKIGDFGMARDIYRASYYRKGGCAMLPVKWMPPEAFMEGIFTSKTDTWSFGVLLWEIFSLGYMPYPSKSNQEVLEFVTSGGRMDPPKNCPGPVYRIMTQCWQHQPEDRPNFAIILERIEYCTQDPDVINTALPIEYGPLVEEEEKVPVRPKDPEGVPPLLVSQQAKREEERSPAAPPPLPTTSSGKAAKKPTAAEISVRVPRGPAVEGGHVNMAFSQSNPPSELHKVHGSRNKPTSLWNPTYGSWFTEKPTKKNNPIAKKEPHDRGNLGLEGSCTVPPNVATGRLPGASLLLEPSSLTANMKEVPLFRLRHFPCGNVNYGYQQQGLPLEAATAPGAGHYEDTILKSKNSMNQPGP
T3 sequence (Q9UM73 whole entry F1174L, the tested form may be a part): as the sequence (Q9UM73 whole entry G1202R, the tested form may be a part) above, with F1174L, R1202G counted along it

Turning to `Cc1cc(Nc2ncc(C(F)(F)F)c(Nc3cn(C)nc3S(=O)(=O)C(C)C)n2)c2c(c1C1CCN(CCO)CC1)C[C@@H](C)O2` [REX-D5, (R)-2-(4-(7-((4-((3-(isopropylsulfonyl)-1-methyl-1H-pyrazol-4-yl)amino)-5-(trifluoromethyl)pyrimidin-2-yl)amino)-2,5-dimethyl-2,3-dihydrobenzofuran-4-yl)piperidin-1-yl)ethanol], the results for the half-inhibitory concentration (IC50) in test [1], in test [2] and in test [5] were 15 nM, below 0.5 nM and 10.7 nM, respectively. Also, the figures for the GI50 in test [3] and in test [4] were 80.1 nM and above 180 nM, respectively.
Taken in the same sequence, the figures for `Cc1cc(Nc2ncc(C(F)(F)F)c(Nc3cn(C4CC4)nc3S(=O)(=O)C(C)C)n2)c2c(c1C1CCN(C)CC1)C[C@@H](C)O2` [REX-D9, (R)—N^4-(1-cyclopropyl-3-(isopropylsulfonyl)-1H-pyrazol-4-yl)-N^2-(2,5-dimethyl-4-(1-methylpiperidin-4-yl)-2,3-dihydrobenzofuran-7-yl)-5-(trifluoromethyl)pyrimidine-2,4-diamine] were 15.8 nM, 1.02 nM, 11.8 nM, 51.8 nM and above 180 nM.
Consider `Cc1cc(Nc2ncc(C(F)(F)F)c(Nc3cn(C)nc3S(=O)(=O)CC(C)C)n2)c2c(c1C1CCN(C)CC1)C[C@@H](C)O2` [REX-D10, (R)—N^2-(2,5-dimethyl-4-(1-methylpiperidin-4-yl)-2,3-dihydrobenzofuran-7-yl)-N^4-(3-(isobutylsulfonyl)-1-methyl-1H-pyrazol-4-yl)-5-(trifluoromethyl)pyrimidine-2,4-diamine], for which the IC50 is 17.1 nM in test [1], below 0.5 nM in test [2] and 14.2 nM in test [5]. Besides, the values for the GI50 in test [3] and in test [4] were below 200 nM and above 180 nM, respectively.
Taken in the same sequence, the figures for `Cc1cc(Nc2ncc(Cl)c(Nc3cn(C)nc3S(=O)(=O)C(C)C)n2)c2c(c1C1CCN(CCO)CC1)C[C@@H](C)O2` [REX-D11, (R)-2-(4-(7-((5-chloro-4-((3-(isopropylsulfonyl)-1-methyl-1H-pyrazol-4-yl)amino)pyrimidin-2-yl)amino)-2,5-dimethyl-2,3-dihydrobenzofuran-4-yl)piperidin-1-yl)ethanol] were 8.46 nM, below 0.5 nM, 10.6 nM, 10.7 nM and above 180 nM.
Taken in the same sequence, the figures for `CC(=O)N1CCC(c2c(C)cc(Nc3ncc(Cl)c(Nc4cn(C)nc4S(=O)(=O)C(C)C)n3)c3c2C[C@@H](C)O3)CC1` [REX-D12, (R)-1-(4-(7-((5-chloro-4-((3-(isopropylsulfonyl)-1-methyl-1H-pyrazol-4-yl)amino)pyrimidin-2-yl)amino)-2,5-dimethyl-2,3-dihydrobenzofuran-4-yl)piperidin-1-yl)ethanone] were 9.21 nM, 1.07 nM, 10.7 nM, 11.6 nM and above 180 nM.
Taken in the same sequence, the figures for `Cc1cc(Nc2ncc(Cl)c(Nc3cn(C)nc3S(=O)(=O)C(C)C)n2)c2c(c1C1CCN(C3CCNCC3)CC1)C[C@@H](C)O2` [REX-D13, (R)—N^2-(4-([1,4′-bipiperidin]-4-yl)-2,5-dimethyl-2,3-dihydrobenzofuran-7-yl)-5-chloro-N^4-(3-(isopropylsulfonyl)-1-methyl-1H-pyrazol-4-yl)pyrimidine-2,4-diamine] were 18.8 nM, 1.02 nM, 33.7 nM, 94.3 nM and above 180 nM.
With `Cc1cc(Nc2ncc(Cl)c(Nc3cn(C)nc3S(=O)(=O)C(C)C)n2)c2c(c1C1CCN(C(C)C)CC1)C[C@@H](C)O2` [REX-D14, (R)-5-chloro-N^2-(4-(1-isopropylpiperidin-4-yl)-2,5-dimethyl-2,3-dihydrobenzofuran-7-yl)-N^4-(3-(isopropylsulfonyl)-1-methyl-1H-pyrazol-4-yl)pyrimidine-2,4-diamine], the IC50 was 15.7 nM in test [1], 1.1 nM in test [2] and 10.7 nM in test [5]. Moreover, the figures for the GI50 in test [3] and in test [4] were 11.2 nM and above 180 nM, respectively.
Taken in the same sequence, the figures for `Cc1cc(Nc2ncc(Cl)c(Nc3cn(C4CC4)nc3S(=O)(=O)C(C)C)n2)c2c(c1C1CCNCC1)C[C@@H](C)O2` [REX-D31, (R)-5-chloro-N^4-(1-cyclopropyl-3-(isopropylsulfonyl)-1H-pyrazol-4-yl)-N^2-(2,5-dimethyl-4-(piperidin-4-yl)-2,3-dihydrobenzofuran-7-yl)pyrimidine-2,4-diamine] were 15.1 nM, 1.92 nM, 40.4 nM, 138 nM and above 180 nM.
On to `Cc1cc(Nc2ncc(Cl)c(Nc3cn(C(C)C)nc3S(=O)(=O)C(C)C)n2)c2c(c1C1CCNCC1)C[C@@H](C)O2` [REX-D32, (R)-5-chloro-N^2-(2,5-dimethyl-4-(piperidin-4-yl)-2,3-dihydrobenzofuran-7-yl)-N^4-(1-isopropyl-3-(isopropylsulfonyl)-1H-pyrazol-4-yl)pyrimidine-2,4-diamine], for which the IC50 in test [1] was found to be 19.3 nM; in test [2], 3.86 nM; in test [5] it was 57.2 nM. Also, the GI50 in test [3] is below 200 nM; in test [4] it was above 180 nM.
Taken in the same sequence, the figures for `CCn1cc(Nc2nc(Nc3cc(C)c(C4CCNCC4)c4c3O[C@H](C)C4)ncc2Cl)c(S(=O)(=O)C(C)C)n1` [REX-D33, (R)-5-chloro-N^2-(2,5-dimethyl-4-(piperidin-4-yl)-2,3-dihydrobenzofuran-7-yl)-N^4-(1-ethyl-3-(isopropylsulfonyl)-1H-pyrazol-4-yl)pyrimidine-2,4-diamine] were 15.5 nM, 2 nM, 11.7 nM, 33.4 nM and above 180 nM.
As for `Cc1cc(Nc2ncc(Cl)c(Nc3cn(C4CC4)nc3S(=O)(=O)C(C)C)n2)c2c(c1C1CCN(C)CC1)C[C@@H](C)O2` [REX-D34, (R)-5-chloro-N^4-(1-cyclopropyl-3-(isopropylsulfonyl)-1H-pyrazol-4-yl)-N^2-(2,5-dimethyl-4-(1-methylpiperidin-4-yl)-2,3-dihydrobenzofuran-7-yl)pyrimidine-2,4-diamine], the IC50 in test [1] was 9.4 nM; in test [2] it was 1.12 nM; in test [5], 13.9 nM. Also, the results for the GI50 in test [3] and in test [4] were 26.1 nM and above 180 nM, respectively.
Consider `Cc1cc(Nc2ncc(Cl)c(Nc3cn(C(C)C)nc3S(=O)(=O)C(C)C)n2)c2c(c1C1CCN(C)CC1)C[C@@H](C)O2` [REX-D35, (R)-5-chloro-N^2-(2,5-dimethyl-4-(1-methylpiperidin-4-yl)-2,3-dihydrobenzofuran-7-yl)-N^4-(1-isopropyl-3-(isopropylsulfonyl)-1H-pyrazol-4-yl)pyrimidine-2,4-diamine], for which the concentration for half-maximal inhibition (IC50) in test [1] amounted to 13.9 nM; in test [2], 1.99 nM; in test [5], 40.3 nM. Also, the GI50 is 80.4 nM in test [3] and above 180 nM in test [4].
As to `Cc1cc(Nc2ncc(Cl)c(Nc3cn(C)nc3S(=O)(=O)CC(C)C)n2)c2c(c1C1CCN(CCO)CC1)C[C@@H](C)O2` [REX-D39, (R)-2-(4-(7-((5-chloro-4-((3-(isobutylsulfonyl)-1-methyl-1H-pyrazol-4-yl)amino)pyrimidin-2-yl)amino)-2,5-dimethyl-2,3-dihydrobenzofuran-4-yl)piperidin-1-yl)ethanol], the GI50 in test [3] is below 10 nM; in test [4] it was above 180 nM.
Consider `Cc1cc(Nc2ncc(Cl)c(Nc3cn(C4CC4)nc3S(=O)(=O)CC(C)C)n2)c2c(c1C1CCNCC1)C[C@@H](C)O2` [REX-D40, (R)-5-chloro-N^4-(1-cyclopropyl-3-(isobutylsulfonyl)-1H-pyrazol-4-yl)-N^2-(2,5-dimethyl-4-(piperidin-4-yl)-2,3-dihydrobenzofuran-7-yl)pyrimidine-2,4-diamine], for which the GI50 in test [3] is 94.8 nM; in test [4], above 180 nM.
Take `Cc1cc(Nc2ncc(Cl)c(Nc3cn(C4CC4)nc3S(=O)(=O)CC(C)C)n2)c2c(c1C1CCN(C)CC1)C[C@@H](C)O2` [REX-D41, (R)-5-chloro-N^4-(1-cyclopropyl-3-(isobutylsulfonyl)-1H-pyrazol-4-yl)-N^2-(2,5-dimethyl-4-(1-methylpiperidin-4-yl)-2,3-dihydrobenzofuran-7-yl)pyrimidine-2,4-diamine]: the GI50 in test [3] is 23.7 nM; in test [4], above 180 nM.
